Experimental data published in paper PMC6572003 (The Journal of General Physiology, 2019).
Numbering of substitutions follows the chain as printed.

Columns and labels:
Test in all cases: two-electrode voltage clamp, Xenopus oocytes, current integral
Type in all cases: cell-based
human P2X4 [1] = molecular target: T1, human P2X4 (Homo sapiens, UniProt Q99571, M336A); details: read-out: % inhibition at 250 μM
T1 sequence (Q99571 1-388 M336A): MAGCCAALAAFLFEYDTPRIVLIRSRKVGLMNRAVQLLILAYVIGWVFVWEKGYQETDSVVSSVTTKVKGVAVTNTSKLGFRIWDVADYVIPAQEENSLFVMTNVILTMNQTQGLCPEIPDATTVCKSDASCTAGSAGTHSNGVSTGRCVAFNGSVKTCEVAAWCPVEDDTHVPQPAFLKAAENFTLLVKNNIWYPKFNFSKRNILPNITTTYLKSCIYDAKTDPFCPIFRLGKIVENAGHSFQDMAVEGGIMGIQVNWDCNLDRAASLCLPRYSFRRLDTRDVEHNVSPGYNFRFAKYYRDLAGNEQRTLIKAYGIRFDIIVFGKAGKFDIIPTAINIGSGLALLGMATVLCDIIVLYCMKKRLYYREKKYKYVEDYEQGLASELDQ

human P2X4 [2] = molecular target: T2, human P2X4 (Homo sapiens, UniProt Q99571, D331A); details: read-out: % inhibition at 250 μM
T2 sequence (Q99571 1-388 D331A): T1 sequence (Q99571 1-388 M336A) with D331A, A336M

human P2X4 [3] = molecular target: T3, human P2X4 (Homo sapiens, UniProt Q99571)
T3 sequence (Q99571 1-388): T1 sequence (Q99571 1-388 M336A) with A336M

human P2X4 [4] = molecular target: T4, human P2X4 (Homo sapiens, UniProt Q99571, E51A); details: read-out: % inhibition at 250 μM
T4 sequence (Q99571 1-388 E51A): T1 sequence (Q99571 1-388 M336A) with E51A, A336M

human P2X4 [5] = molecular target: T5, human P2X4 (Homo sapiens, UniProt Q99571, W50A); details: read-out: % inhibition at 250 μM
T5 sequence (Q99571 1-388 W50A): T1 sequence (Q99571 1-388 M336A) with W50A, A336M

human P2X4 [6] = molecular target: T3, human P2X4; details: read-out: % inhibition at 250 μM
human P2X4 [7] = molecular target: T3, human P2X4; remark: listed apart in the source

With `C[C@H](CCC(=O)NCCS(=O)(=O)O)[C@H]1CC[C@H]2[C@@H]3CC[C@@H]4C[C@H](O)CC[C@]4(C)[C@H]3C[C@H](O)[C@]12C` [t-DCA, tauro-deoxycholic acid] as the molecule, how does the inhibition at 250 µM (human P2X4 [1]) read?
Its inhibition at 250 µM is 22%.

And the inhibition at 250 µM (human P2X4 [2])?
The inhibition at 250 µM was 38%.

And the IC50 (human P2X4 [3])?
Its IC50 is ~160 µM.

And the inhibition at 250 µM (human P2X4 [4])?
Its inhibition at 250 µM is 74%.

What about the inhibition at 250 µM (human P2X4 [5]) of the same molecule?
Its inhibition at 250 µM is 63%.

For `C[C@H](CCC(=O)NCCS(=O)(=O)O)[C@H]1CC[C@H]2[C@@H]3[C@H](O)C[C@@H]4C[C@H](O)CC[C@]4(C)[C@H]3CC[C@]12C` [t-CDCA, tauro-chenodeoxycholic acid], which inhibition at 250 µM (human P2X4 [6]) is on record?
Its inhibition at 250 µM is 25 ± 9%.

With `Nc1ncnc2c1ncn2[C@@H]1O[C@H](COP(=O)(O)OP(=O)(O)OP(=O)(O)O)[C@@H](O)[C@H]1O` [ATP] as the molecule, how does the EC50 (human P2X4 [7]) read?
Its EC50 is 4.8 ± 1.2 µM.

With `C[C@H](CCC(=O)O)[C@H]1CC[C@H]2[C@@H]3CC[C@@H]4C[C@H](O)CC[C@]4(C)[C@H]3C[C@H](O)[C@]12C` [DCA, deoxycholic acid] as the molecule, how does the inhibition at 250 µM (human P2X4 [6]) read?
The inhibition at 250 µM was 73 ± 2%.
